The target of data set [1] is T1, DNA repair and recombination protein RAD54-like (Homo sapiens, UniProt Q92698).
T1 sequence (Q92698 whole entry): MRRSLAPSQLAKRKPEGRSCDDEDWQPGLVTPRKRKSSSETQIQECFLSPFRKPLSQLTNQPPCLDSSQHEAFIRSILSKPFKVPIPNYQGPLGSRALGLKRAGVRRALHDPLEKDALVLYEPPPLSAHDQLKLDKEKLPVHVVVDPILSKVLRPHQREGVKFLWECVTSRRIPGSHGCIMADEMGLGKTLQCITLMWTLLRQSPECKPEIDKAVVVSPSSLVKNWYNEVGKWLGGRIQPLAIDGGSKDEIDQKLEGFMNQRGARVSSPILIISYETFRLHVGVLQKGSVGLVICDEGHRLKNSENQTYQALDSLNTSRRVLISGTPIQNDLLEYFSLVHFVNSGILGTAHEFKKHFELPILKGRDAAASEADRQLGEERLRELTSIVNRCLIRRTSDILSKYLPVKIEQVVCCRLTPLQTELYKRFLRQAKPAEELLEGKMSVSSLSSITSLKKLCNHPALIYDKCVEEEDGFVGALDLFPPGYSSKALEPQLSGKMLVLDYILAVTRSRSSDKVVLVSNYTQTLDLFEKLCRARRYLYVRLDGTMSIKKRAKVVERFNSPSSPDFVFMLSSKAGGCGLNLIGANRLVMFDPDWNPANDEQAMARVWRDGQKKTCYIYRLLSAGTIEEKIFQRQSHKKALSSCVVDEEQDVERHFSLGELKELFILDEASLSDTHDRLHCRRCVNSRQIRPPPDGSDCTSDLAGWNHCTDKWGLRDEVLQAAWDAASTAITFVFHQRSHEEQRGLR
Put plainly: inhibitors of human RAD54 branch migration, confirmation, biochemical, fluorescence, cherry-picked samples, dose series (AID 651657). The class given is functional.

Data set [2] can be described thus: AlphaScreen signal interference compounds, dose response, artefact control for ARNT-TACC3 interaction inhibitor project, biochemical, luminescence, cherry-pick (AID 651705).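 Also: AlphaScreen bead proximity signal that flags compounds interfering with the detection technology; potency reflects signal decrease which marks the compound as an assay artifact.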 It counts as functional. A general note: In Alpha technology, singlet oxygen from a donor bead excites a nearby acceptor bead.
The nature of data set [3]: inhibitors of HIV Env-driven cell fusion, dose response, cherry-pick (AID 652057). It counts as functional, cell-based.
The nature of data set [4]: CEM21 lymphoblast cell cytotoxicity, dose response, cytotoxicity control for viral fusion inhibitor project, CellTiter-Glo luminescence, cherry-picked (AID 652042).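 Also: potency for signal decrease meaning cytotoxicity.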 The class given is functional, cell-based. A general note: In ATP-based viability assays light output follows the ATP content of the culture.
Data set [5] is described as follows: ZM109 Env clade C HIV-1 fusion inhibitors, dose response, HeLa effector, CEM target cells, luciferase, cherry-pick (AID 652058). It counts as functional, cell-based.
A short description of data set [6]: inhibitors of clade B AD8 Env fusion, dose response, cell-based, cherry-pick (AID 652062).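 Also: luciferase signal from cell-cell fusion driven by HIV-1 clade B AD8 Env; potency is for inhibitors of fusion seen as a drop in luminescence.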 It counts as functional.
Data set [7] can be described thus: cells. It counts as functional, cell-based.
Data set [8] addresses T2, Trace amine-associated receptor 1 (Homo sapiens, UniProt Q96RJ0).
T2 sequence (Q96RJ0 whole entry): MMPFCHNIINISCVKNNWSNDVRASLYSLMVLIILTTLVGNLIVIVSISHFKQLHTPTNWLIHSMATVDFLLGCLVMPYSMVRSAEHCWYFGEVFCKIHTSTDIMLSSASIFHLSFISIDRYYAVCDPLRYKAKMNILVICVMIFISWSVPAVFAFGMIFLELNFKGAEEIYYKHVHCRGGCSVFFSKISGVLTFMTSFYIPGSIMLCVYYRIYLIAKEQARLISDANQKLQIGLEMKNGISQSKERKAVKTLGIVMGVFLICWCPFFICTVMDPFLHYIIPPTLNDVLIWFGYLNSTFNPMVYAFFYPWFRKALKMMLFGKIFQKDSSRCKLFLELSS
Put plainly: Fluorescence-based cell-based high throughput dose response assay to identify agonists of the human trace amine associated receptor 1 (TAAR1). The class given is functional.

Data set [9] concerns the target T2, Trace amine-associated receptor 1. Put plainly: Counterscreen for agonists of the human trace amine associated receptor 1 (hTAAR1): Fluorescence-based cell-based high throughput dose response assay to identify hTAAR1 agonist that also desensitize TAAR1 receptor response. The class given is functional. For orientation: A counterscreen serves to expose hits that act by an unwanted route or on another target.

The nature of data set [10]: cells. It counts as functional, cell-based. This is another data set of the same source.
In data set [11] the test system is Streptococcus sp. 'group A'. The data set is described as follows: growth inhibition of control SK(-) GAS strain, dose response, counter-screen for streptokinase expression inhibitor project, luminescence, kanamycin, BacTiterGlo, confirmation (AID 1900). It counts as functional, organism-based.
The target of the next data set is T3, Streptokinase A (Streptococcus pyogenes serotype M1, UniProt P10520).
T3 sequence (P10520 whole entry): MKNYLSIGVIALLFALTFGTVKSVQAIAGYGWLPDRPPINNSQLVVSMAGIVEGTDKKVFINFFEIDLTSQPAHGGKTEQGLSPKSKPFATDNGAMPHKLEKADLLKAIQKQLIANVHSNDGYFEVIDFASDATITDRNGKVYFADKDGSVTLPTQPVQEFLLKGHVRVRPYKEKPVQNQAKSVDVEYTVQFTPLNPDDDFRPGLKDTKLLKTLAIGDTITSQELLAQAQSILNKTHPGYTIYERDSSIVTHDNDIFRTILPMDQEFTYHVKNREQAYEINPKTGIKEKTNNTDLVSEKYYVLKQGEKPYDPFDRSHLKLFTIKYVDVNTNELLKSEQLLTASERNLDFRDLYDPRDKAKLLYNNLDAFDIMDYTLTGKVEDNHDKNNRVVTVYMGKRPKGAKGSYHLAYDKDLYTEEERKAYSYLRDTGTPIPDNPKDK
Put plainly: S. pyogenes streptokinase expression inhibitors, potency, dose response, plasminogen activation absorbance, OD405 (AID 1914).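 Also: secreted streptokinase activity via plasminogen activation per viability signal from cell pellet.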 The class given is functional, Streptococcus pyogenes M1 GAS.

Data set [12] can be described thus: inhibitors of intracellular T. cruzi replication, confirmation, NIH3T3 host cells, beta-gal luminescence (AID 2044).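 Also: intracellular parasites grown in NIH/3T3 mouse fibroblasts as host cells; luminescent beta-galactosidase reporter signal from transgenic T. cruzi replicating inside host cells; inhibitors lower the luminescence signal.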 It counts as functional, cell-based.
A short description of data set [13]: cytotoxicity toward NIH3T3 fibroblasts, dose response, counter-screen, cell-based, ATP luminescence, mouse fibroblasts (AID 2010).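 Also: cells exposed to compound for about 90 hours before reading.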 The class given is functional.
The subject of the next data set is Streptococcus. Put plainly: Group A Streptococcus viability loss, dose response, counter-screen for streptokinase expression inhibitor project, luminescence, BacTiterGlo (AID 1915).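 Also: potency for reduction of bacterial viability or growth.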 It counts as functional, organism-based.
In the next data set the target is T4, Cytochrome P450 1A2 (Homo sapiens, UniProt P05177).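 Also: PubChem cytochrome P450 panel assay, CYP1A2 panel member.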
T4 sequence (P05177 whole entry): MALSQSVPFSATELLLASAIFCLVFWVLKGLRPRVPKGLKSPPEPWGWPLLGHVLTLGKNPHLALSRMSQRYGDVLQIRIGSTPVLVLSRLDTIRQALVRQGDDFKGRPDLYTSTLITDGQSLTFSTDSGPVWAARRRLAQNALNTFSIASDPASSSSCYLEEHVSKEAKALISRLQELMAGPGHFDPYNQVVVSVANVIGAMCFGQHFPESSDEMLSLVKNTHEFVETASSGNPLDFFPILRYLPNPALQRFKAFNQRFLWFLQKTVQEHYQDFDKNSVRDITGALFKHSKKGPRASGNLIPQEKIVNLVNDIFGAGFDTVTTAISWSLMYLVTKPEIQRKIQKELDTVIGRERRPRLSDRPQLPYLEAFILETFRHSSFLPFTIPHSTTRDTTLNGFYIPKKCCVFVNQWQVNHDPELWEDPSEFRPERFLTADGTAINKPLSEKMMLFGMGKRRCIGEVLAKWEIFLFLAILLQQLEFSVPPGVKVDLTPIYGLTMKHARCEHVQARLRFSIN

A further data set addresses Cytochrome P450 2C9 (Homo sapiens, UniProt P11712).
Data set [14] addresses T5, Ubiquitin-conjugating enzyme E2 N (Homo sapiens, UniProt P61088).
T5 sequence (P61088 whole entry): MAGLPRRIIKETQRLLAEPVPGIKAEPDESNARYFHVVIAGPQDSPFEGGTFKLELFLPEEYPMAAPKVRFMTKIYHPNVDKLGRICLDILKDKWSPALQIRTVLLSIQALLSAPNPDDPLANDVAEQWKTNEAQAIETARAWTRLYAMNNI
The class given is functional.

Data set [15] can be described thus: HeLa cell cytotoxicity, dose response, cytotoxicity control for MgcRacGAP inhibitor project (AID 624300). It counts as functional.
The target in data set [16] is T6, Rac GTPase-activating protein 1 (Homo sapiens, UniProt Q9H0H5).
T6 sequence (Q9H0H5 whole entry): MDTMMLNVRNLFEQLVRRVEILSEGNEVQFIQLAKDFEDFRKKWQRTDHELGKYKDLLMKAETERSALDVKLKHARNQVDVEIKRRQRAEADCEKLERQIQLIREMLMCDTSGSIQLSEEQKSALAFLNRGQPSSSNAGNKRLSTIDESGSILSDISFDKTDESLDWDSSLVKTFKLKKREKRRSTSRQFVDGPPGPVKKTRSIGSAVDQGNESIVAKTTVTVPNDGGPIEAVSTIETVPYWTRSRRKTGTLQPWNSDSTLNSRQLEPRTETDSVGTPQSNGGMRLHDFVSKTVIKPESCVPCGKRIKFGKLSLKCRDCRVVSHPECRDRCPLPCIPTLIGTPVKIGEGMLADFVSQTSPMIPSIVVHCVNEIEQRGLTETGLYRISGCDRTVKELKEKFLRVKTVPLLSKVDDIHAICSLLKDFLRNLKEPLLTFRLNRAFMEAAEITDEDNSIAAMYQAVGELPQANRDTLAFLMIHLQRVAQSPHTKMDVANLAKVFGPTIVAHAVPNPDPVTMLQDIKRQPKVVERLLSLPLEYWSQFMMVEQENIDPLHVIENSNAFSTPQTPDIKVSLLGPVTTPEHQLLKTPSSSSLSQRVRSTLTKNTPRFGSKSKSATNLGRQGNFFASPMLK
Put plainly: MgcRacGAP GTPase-activating activity inhibitors, confirmation, biochemical, ADP Hunter fluorescence, primary and confirmatory (AID 624330). It counts as functional.

Data set [17] deals with T7, DNA repair protein RAD52 homolog (Homo sapiens, UniProt P43351).
T7 sequence (P43351 whole entry): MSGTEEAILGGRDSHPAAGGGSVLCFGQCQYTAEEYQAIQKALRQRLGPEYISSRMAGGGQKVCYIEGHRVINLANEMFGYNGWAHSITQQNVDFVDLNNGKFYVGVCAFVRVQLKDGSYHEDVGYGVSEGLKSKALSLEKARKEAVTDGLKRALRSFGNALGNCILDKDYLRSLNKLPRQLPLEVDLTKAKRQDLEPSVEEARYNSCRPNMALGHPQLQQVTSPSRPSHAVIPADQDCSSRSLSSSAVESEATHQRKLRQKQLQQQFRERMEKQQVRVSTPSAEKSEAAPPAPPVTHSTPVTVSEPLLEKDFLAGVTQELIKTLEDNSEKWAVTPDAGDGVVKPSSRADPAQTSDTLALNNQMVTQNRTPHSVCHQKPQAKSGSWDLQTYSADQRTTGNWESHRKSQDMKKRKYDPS
It counts as functional, biochemical.

The text below walks through data of ChEMBL document CHEMBL1201862, “PubChem BioAssay data set” (2004).

Each structure is given as a SMILES string. The source made the active and inactive calls. Some results are limits rather than exact numbers.

Sequence of Cytochrome P450 2C9 (P11712 whole entry): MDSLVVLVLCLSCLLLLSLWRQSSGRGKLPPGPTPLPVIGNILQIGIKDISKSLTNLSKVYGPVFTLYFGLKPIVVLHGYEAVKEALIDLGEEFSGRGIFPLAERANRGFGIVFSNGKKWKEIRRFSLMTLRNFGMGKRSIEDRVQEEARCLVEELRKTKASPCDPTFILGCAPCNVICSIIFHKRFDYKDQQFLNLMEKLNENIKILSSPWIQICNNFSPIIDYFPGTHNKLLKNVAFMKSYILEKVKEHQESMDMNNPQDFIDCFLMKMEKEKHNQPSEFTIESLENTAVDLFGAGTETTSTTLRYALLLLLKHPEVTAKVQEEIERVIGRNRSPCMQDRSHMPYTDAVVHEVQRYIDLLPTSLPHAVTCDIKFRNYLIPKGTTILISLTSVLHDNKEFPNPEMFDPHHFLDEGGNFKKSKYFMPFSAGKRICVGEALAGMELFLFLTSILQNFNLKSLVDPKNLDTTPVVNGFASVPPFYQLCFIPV

The AC50 is the midpoint of the concentration-response curve, whichever way the signal moves. As to `CCOc1cc2nc(-c3ccc(OC)c(OC)c3)nc(NCCCN3CCOCC3)c2cc1OC`, the AC50 in [1] is 5.2 µM (active); in [2], 130 µM (active).
As for `CCCCCCCCN1C(=O)[C@H](CC(=O)NCc2cccs2)C[C@@]2(C(=O)OCC)CCCC=C12`, the AC50 is 16.8 µM (active) in [3], 25.1 µM (active) in data set [4], 17 µM (active) in data set [5] and 22.7 µM (active) in [6].
What is called IC50 is the concentration that inhibits the measured activity by half. By EC50 is commonly meant the midpoint of the concentration-response curve. Consider `Cc1cc(S(=O)(=O)Nc2cccc(Cl)c2)c(C)s1`, for which the IC50 in “cells [7]” is > 29.9 µM (inactive); in data set [9] it was 8.66 µM (active). For the same molecule, the EC50 in [8] is 4.88 µM (active); in “cells [10]”, > 29.9 µM (inactive).
For `COc1ccc(NC(=O)Nc2ccc3c(c2)CC(=O)N([C@@H](C)CO)C[C@@H](C)[C@H](CN(C)Cc2ccc(C(F)(F)F)cc2)O3)cc1`, the AC50 in data set [3] was 6.8 µM (active); in data set [4], 23.2 µM (active); in [5] it was 2.67 µM (active); in data set [6], 27 µM (active).
In the case of `CCOc1ccc(NC(=O)c2c(NC(=O)CNCCN3CCOCC3)sc3c2CCC3)cc1`, the EC50 in [11] is 1.95 µM (active); at Streptokinase A, > 150 µM (not active); in [12], 1.74 µM (active); in data set [13] it was > 30 µM (not active); in the data set on Streptococcus, 59.5 µM (active). Further, in data set [2], the AC50 is 75.1 µM (active).
For `O=C(CSc1cccc2cccnc12)OCC(=O)c1ccccc1`, the values for the AC50 (in [2]; at Cytochrome P450 1A2; at Cytochrome P450 2C9) were 92.5 µM (active), 20 µM (inconclusive) and “inconclusive”, respectively.
Broadly, the CC50 is the concentration that lowers cell viability or growth by half. As to `CN1CCN(CCCN2c3ccccc3Sc3ccc(Cl)cc32)CC1` [PROCHLORPERAZINE EDISYLATE], the IC50 is > 20 µM (inactive) in data set [14] and 80 µM (active) in data set [16]. In addition, the CC50 in [15] is 65 µM (active). The AC50 in data set [17] is 17.6 µM (active).
`CCc1ccccc1NC(=O)N1CCc2ccccc2C1`: the IC50 (in “cells [7]”; in data set [9]) was > 29.9 µM (inactive) in each case. In addition, the EC50 in data set [8] is 0.321 µM (active); in the data set “cells [10]” it was > 29.9 µM (inactive).
`CN(C)CCNc1cc(-c2ccncc2)nc2ccccc12`: the AC50 in data set [1] was 17.2 µM (active); in data set [17], 4.09 µM (active).
